Assay results as given in US9315458B2, “Nitrogen-containing heterocyclic compound” (Takeda Pharmaceutical Company Limited, priority 2014, dated 2016).

Molecular target: T1, human M1 receptor (hCHRM1) (Homo sapiens, UniProt P11229)
T1 construct: expressed in transfected cells
T1 sequence (P11229 1-460): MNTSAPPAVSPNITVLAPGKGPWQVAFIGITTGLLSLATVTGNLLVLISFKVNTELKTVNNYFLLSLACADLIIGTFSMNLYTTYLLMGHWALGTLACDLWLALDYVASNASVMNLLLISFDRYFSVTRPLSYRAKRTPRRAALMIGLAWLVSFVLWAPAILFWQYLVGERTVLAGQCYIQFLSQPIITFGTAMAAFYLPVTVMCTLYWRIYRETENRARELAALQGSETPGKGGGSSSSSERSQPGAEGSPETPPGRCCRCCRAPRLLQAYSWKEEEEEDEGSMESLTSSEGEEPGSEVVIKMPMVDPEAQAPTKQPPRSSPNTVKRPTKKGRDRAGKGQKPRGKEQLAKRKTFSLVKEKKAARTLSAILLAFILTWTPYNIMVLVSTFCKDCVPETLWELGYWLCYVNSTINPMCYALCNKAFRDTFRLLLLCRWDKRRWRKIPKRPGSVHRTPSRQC
Experiment: Measurement of M1 receptor positive allosteric modulator (M1PAM) activity, calcium fluorescence (FLIPRtetra) with acetylcholine at EC20
Assay type: cell-based
Settings: for activity (%) at 10 μM: 10 μM test compound, 100% = acetylcholine 1 μM, 0% = DMSO, acetylcholine at EC20; for EC50: inflection point of concentration-dependent curve, CHO-K1 cells expressing hCHRM1, acetylcholine at EC20 (final 0.6-0.8 nM), read-out: IP value
How it was run: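 CHO-K1 cells stably expressing hCHRM1, Fluo-4 AM loaded; compound added with acetylcholine at EC20 (final 0.6-0.8 nM), fluorescence read 1 min. Activity normalised to 1 μM acetylcholine (100%) and DMSO (0%); IP values taken as inflection point of the concentration-response curve.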

| Structure (SMILES) | activity (%) at 10 μM [%] | EC50 [nM] |
| --- | --- | --- |
| Cc1c(Cc2ccc(-c3cn(C)nn3)cc2F)cc2c(c1C)CN(CC1CCCO1)C2=O (centres unmarked) [Example 103, 6-(2-fluoro-4-(1-methyl-1H-1,2,3-triazol-4-yl)benzyl)-4,5-dimethyl-2-(tetrahydrofuran-2-ylmethyl)isoindolin-1-one] | 94 | 6 |
| Cc1cc2c(cc1Cc1ccc(-n3cccn3)cc1)C(=O)N(CC(C)(C)O)C2 [Example 104, 2-(2-hydroxy-2-methylpropyl)-5-methyl-6-(4-(1H-pyrazol-1-yl)benzyl)isoindolin-1-one] | 101 | 54 |
| CCc1cc2c(cc1Cc1ccc(-c3cn(C)nn3)cc1)C(=O)N(CC1CCCO1)C2 (centres unmarked) [Example 105, 5-ethyl-6-(4-(1-methyl-1H-1,2,3-triazol-4-yl)benzyl)-2-(tetrahydrofuran-2-ylmethyl)isoindolin-1-one] | 92 | 10 |
| Cc1c(Cc2ccc(-c3cn(C)nn3)cc2)cc2c(c1C)CN(C[C@H]1CCCO1)C2=O [Example 110, 4,5-dimethyl-6-(4-(1-methyl-1H-1,2,3-triazol-4-yl)benzyl)-2-((2R)-tetrahydrofuran-2-ylmethyl)isoindolin-1-one] | 77 | 24 |
| Cc1c(Cc2ccc(-c3ccn(C)n3)cc2)cc2c(c1F)CN([C@H]1CCC[C@@H]1O)C2=O [Example 111, 4-fluoro-2-((1S,2S)-2-hydroxycyclopentyl)-5-methyl-6-(4-(1-methyl-1H-pyrazol-3-yl)benzyl)isoindolin-1-one] | 103 | 26 |
| Cc1c(Cc2ccc(-n3cccn3)cc2F)cc2c(c1C)CN(C[C@@H]1CCCO1)C2=O [Example 115, 6-(2-fluoro-4-(1H-pyrazol-1-yl)benzyl)-4,5-dimethyl-2-((2S)-tetrahydrofuran-2-ylmethyl)isoindolin-2-one] | 92 | 25 |
| CCc1cc2c(cc1Cc1ccc(-c3ccn(C)n3)cc1)C(=O)N([C@H]1COCC[C@@H]1O)C2 [Example 116, 5-ethyl-2-[(3S,4S)-4-hydroxytetrahydro-2H-pyran-3-yl]-6-[4-(1-methyl-1H-pyrazol-3-yl)benzyl]-2,3-dihydro-1H-isoindol-1-one] | 111 | 6.1 |
| CCc1cc2c(cc1Cc1ccc(-c3cn(C)nn3)cc1)C(=O)N([C@H]1CCC[C@@H]1O)C2 [Example 119, 5-ethyl-2-((1S,2S)-2-hydroxycyclopentyl)-6-(4-(1-methyl-1H-1,2,3-triazol-4-yl)benzyl)isoindolin-1-one] | 91 | 3.1 |
| CCc1cc2c(cc1Cc1ccc(-c3ccn(C)n3)cc1)C(=O)N([C@H]1CCC[C@@H]1O)C2 [Example 120, 5-ethyl-2-((1S,2S)-2-hydroxycyclopentyl)-6-(4-(1-methyl-1H-pyrazol-3-yl)benzyl)isoindolin-1-one] | 93 | 25 |
| Cc1c(Cc2ccc(-n3cccn3)cc2)cc2c(c1F)CN(CC(C)(C)O)C2=O [Example 127, 4-fluoro-2-(2-hydroxy-2-methylpropyl)-5-methyl-6-(4-(1H-pyrazol-1-yl)benzyl)isoindolin-1-one] | 104 | 59 |
| CCc1cc2c(cc1Cc1ccc(-n3cccn3)cc1)C(=O)N([C@H]1COCC[C@@H]1O)C2 [Example 128, 5-ethyl-2-[(3S,4S)-4-hydroxytetrahydro-2H-pyran-3-yl]-6-[4-(1H-pyrazol-1-yl)benzyl]-2,3-dihydro-1H-isoindol-1-one] | 97 | 5 |
| CCc1cc2c(cc1Cc1ccc(-n3cccn3)cc1)C(=O)N(CC(C)(C)O)C2 [Example 129, 5-ethyl-2-(2-hydroxy-2-methylpropyl)-6-(4-(1H-pyrazol-1-yl)benzyl)isoindolin-1-one] | 100 | 53 |
| Cc1c(Cc2ccc(-n3cccn3)cc2)cc2c(c1Cl)CN([C@H]1COCC[C@@H]1O)C2=O [Example 130, 4-chloro-2-[(3S,4S)-4-hydroxytetrahydro-2H-pyran-3-yl]-5-methyl-6-[4-(1H-pyrazol-1-yl)benzyl]-2,3-dihydro-1H-isoindol-1-one] | 94 | 2.2 |
| Cc1c(Cc2ccc(-n3cccn3)cc2)cc2c(c1Cl)CN([C@H]1CCC[C@@H]1O)C2=O [Example 131, 4-chloro-2-((1S,2S)-2-hydroxycyclopentyl)-5-methyl-6-(4-(1H-pyrazol-1-yl)benzyl)isoindolin-1-one] | 100 | 12 |
| Cc1c(Cc2ccc(-n3cccn3)cc2)cc2c(c1Cl)CN(CC(C)(C)O)C2=O [Example 132, 4-chloro-2-(2-hydroxy-2-methylpropyl)-5-methyl-6-(4-(1H-pyrazol-1-yl)benzyl)isoindolin-1-one] | 87 | 7.3 |
| Cc1cc2c(cc1Cc1ccc(-n3cccn3)cc1)C(=O)N(C(C)C(C)(C)O)C2 (centres unmarked) [Example 133, 2-(3-hydroxy-3-methylbutan-2-yl)-5-methyl-6-(4-(1H-pyrazol-1-yl)benzyl)isoindolin-1-one] | 87 | 35 |
| Cc1c(Cc2ccc(-n3cccn3)nc2)cc2c(c1C)CN(C[C@@H]1CCCO1)C2=O [Example 136, 4,5-dimethyl-6-((6-(1H-pyrazol-1-yl)pyridin-3-yl)methyl)-2-((2S)-tetrahydrofuran-2-ylmethyl)isoindolin-1-one] | 100 | 75 |
| CNC(=O)c1ccc(Cc2cc3c(c(C)c2C)CN(CC(C)(C)O)C3=O)cc1F [Example 138, 2-fluoro-4-((2-(2-hydroxy-2-methylpropyl)-6,7-dimethyl-3-oxo-2,3-dihydro-1H-isoindol-5-yl)methyl)-N-methylbenzamide] | 106 | 25 |

More lines, in order of falling EC50, values ahead:

| activity (%) at 10 μM [%] | EC50 [nM] | Structure (SMILES) |
| --- | --- | --- |
| 93 | 73 | Cc1c(Cc2ccc(C#N)cc2F)cc2c(c1C)CN([C@H]1CCC[C@@H]1O)C2=O [Example 125, 3-fluoro-4-((2-((1S,2S)-2-hydroxycyclopentyl)-6,7-dimethyl-3-oxo-2,3-dihydro-1H-isoindol-5-yl)benzyl)benzonitrile] |
| 104 | 52 | Cc1c(Cc2ccc(-c3cnn(C)c3)cc2)cc2c(c1C)CN(CC1CCCO1)C2=O (centres unmarked) [Example 84, 4,5-dimethyl-6-(4-(1-methyl-1H-pyrazol-4-yl)benzyl)-2-(tetrahydrofuran-2-ylmethyl)isoindolin-1-one] |
| 105 | 41 | Cc1c(Cc2ccc(-c3ccn(C)n3)cc2)cc2c(c1C)CN(CC1CCCO1)C2=O (centres unmarked) [Example 85, 4,5-dimethyl-6-(4-(1-methyl-1H-pyrazol-3-yl)benzyl)-2-(tetrahydrofuran-2-ylmethyl)isoindolin-1-one] |
| 106 | 25 | CCc1cc2c(cc1Cc1ccc(-c3cn(C)nn3)cc1)C(=O)N(CC(C)(C)O)C2 [Example 118, 5-ethyl-2-(2-hydroxy-2-methylpropyl)-6-(4-(1-methyl-1H-1,2,3-triazol-4-yl)benzyl)isoindolin-1-one] |
| 100 | 23 | Cc1c(Cc2ccc(-c3ccn(C)n3)cc2)cc2c(c1C)CN(C[C@@H]1CCCO1)C2=O [Example 109, 4,5-dimethyl-6-(4-(1-methyl-1H-pyrazol-3-yl)benzyl)-2-((2S)-tetrahydrofuran-2-ylmethyl)isoindolin-1-one] |
| 89 | 22 | Cc1c(Cc2ccc(-n3cccn3)cc2F)cc2c(c1C)CN(CC(C)(C)O)C2=O [Example 121, 6-(2-fluoro-4-(1H-pyrazol-1-yl)benzyl)-2-(2-hydroxy-2-methylpropyl)-4,5-dimethylisoindolin-1-one] |
| 86 | 16 | Cc1c(Cc2ccc(C#N)cc2F)cc2c(c1C)CN([C@H]1COCC[C@@H]1O)C2=O [Example 124, 3-fluoro-4-({2-[(3S,4S)-4-hydroxytetrahydro-2H-pyran-3-yl]-6,7-dimethyl-3-oxo-2,3-dihydro-1H-isoindol-5-yl}methyl)benzonitrile] |
| 96 | 15 | Cc1c(Cc2ccc(-c3ccn(C)n3)cc2)cc2c(c1C)CN(CC(C)(C)O)C2=O [Example 114, 2-(2-hydroxy-2-methylpropyl)-4,5-dimethyl-6-(4-(1-methyl-1H-pyrazol-3-yl)benzyl)isoindolin-1-one] |
| 102 | 14 | Cc1c(Cc2ccc(-n3cccn3)cc2)cc2c(c1F)CN([C@H]1CCC[C@@H]1O)C2=O [Example 107, 4-fluoro-2-((1S,2S)-2-hydroxycyclopentyl)-5-methyl-6-(4-(1H-pyrazol-1-yl)benzyl)isoindolin-1-one] |
| 90 | 2.1 | CNC(=O)c1ccc(Cc2cc3c(c(C)c2C)CN([C@H]2CCC[C@@H]2O)C3=O)cc1F [Example 123, 2-fluoro-4-((2-((1S,2S)-2-hydroxycyclopentyl)-6,7-dimethyl-3-oxo-2,3-dihydro-1H-isoindol-5-yl)methyl)-N-methylbenzamide] |
